Results reported in patent publication US11697798B2, “Enhanced differentiation and maturation of pluripotent stem cell-derived myogenic cells” (Regents of the University of Minnesota, priority 2017, dated 2023).

Tests used:
Assay type in all cases: cell-based, human
[1] = system: myotubes derived from hESC-1, hiPSC-1 and hiPSC-2; assay: Small molecule library screening (Tocriscreen Stem Cell Toolbox), MHC/DAPI area ratio; settings: terminal differentiation
Experimental: After 24 hours, cells were switched to MM with 1 μg/ml Doxycyline and incubated at 37° C. for 2 days. 1/10th of EBs were then plated on gelatin coated T-75 flasks in MM with 1 μg/ml dox and 5 ng/ml human basic fibroblast growth factor (bFGF). After 4 days, cells were dissociated with 0.25% trypsin-EDTA, FACS sorted for GFP to derive myogenic progenitors which were plated at a density of 2 million/T-75 flask in MM with 1 μg/ml dox and 5 ng/ml bFGF. Once the cells reached 90% confluency, myogenic progenitors were dissociated with 0.25% trypsin-EDTA and passaged at a ratio of 1:6 to 1:8. To induce terminal differentiation, myogenic progenitors at P3-4 were plated at a density of 75,000 cells/24-well plate and allowed to grow confluent for 3 days. The medium was then switched to low nutrient differentiation medium (DM) consisting of DMEM-KO supplemented with 20% KOSR, 1% NEAA, 1% glutamax and 1% penicillin-streptomycin and incubated for five days to derive myotubes. Transplantation Experiment
Small molecule library screening was done using the tocriscreen stem cell toolbox kit (tocris) which consisted of 80 compounds. Myogenic progenitors at passage P3 or P4 were seeded at 12,000 cells/well in 96-well plates (triplicates) and incubated at 37° C. for 3 days to reach 100% confluency. After 3 days, the cells were switched to DM supplemented with 10 μM of the compounds from the library or with DMSO. Cells were incubated in this differentiation medium for 5 days to derive myotubes. Cells were then fixed with 4% PFA and stained for MHC and DAPI. The stained plates were imaged using cytation plate reader and 49 pictures were taken per well to cover most of the area. The images were stitched together and the ratio of area of MHC/DAPI staining was quantified using Image J and normalized to that of DMSO treated cells. […] Different combinations were made with selected compounds and their effect on differentiation was tested and quantified. […]

[2] = system: hiPS cell-derived myogenic progenitors; assay: Western blot for MHC8 protein in terminally differentiated myotubes; settings: horse serum-based differentiation medium, TUBB loading control
Experimental: Human induced Pluripotent Stem Cells (hiPSC, PLZ) or Embryonic Stem Cells (hESC, H9) were transduced with the lentiviral constructs pSAM2-PAX7-ires-GFP and pFUGW-rtTA to generate doxycycline-inducible PAX7 (iPAX7) PS-cells as previously reported (Darabi, 2012). iPAX7-PS cells were cultured on matrigel-coated flasks using mTeSR1 medium (Stem Cell Technology). Cells were differentiated to myogenic progenitors as previously described (Darabi and Perlingeiro, 2016). Briefly, iPAX7-PS cells were detached with Accumax and 1×10^6 cells were plated in 6 cm non-adherent Petri dishes with mTeSR1 supplemented with 10 uM Y-27632 (ROCK inhibitor) and incubated at 37° C., 5% CO2 on a shaker at 60 RPM for 48 h. Then, medium was replaced with EB Myogenic (EBM) Medium supplemented with 10 uM […] (GSK3-β inhibitor) and 10 uM Y-27632. Three days later supplements were removed by changing to fresh medium. At day 7, EBs were plated on gelatin-coated flasks with EBM medium+10 ng/ml human basic FGF (bFGF) and three days later 1 ug/ml of doxycycline was added to the medium to induce PAX7 expression. Cells were harvested by trypsinization at day 14 and subsequently FACS sorted for GFP(+) expression. From this point, cells are considered as myogenic progenitors and cultured on gelatin-coated flasks using EBM medium+10 ng/ml bFGF+1 ug/ml Dox. […]

[3] = system: hiPS cell-derived myogenic progenitors; assay: Immunofluorescence staining for MHC and MYOG after terminal differentiation; settings: for Myogenin (MYOG) immunofluorescence: clustering of myogenic nuclei / Myosin heavy chain (MHC) immunofluorescence: fusion, myotube thickness: KOSR-based differentiation medium; for Myosin heavy chain (MHC) immunofluorescence: fusion, myotube thickness: versus untreated control
Experimental: (§1) Human induced Pluripotent Stem Cells (hiPSC, PLZ) or Embryonic Stem Cells (hESC, H9) were transduced with the lentiviral constructs pSAM2-PAX7-ires-GFP and pFUGW-rtTA to generate doxycycline-inducible PAX7 (iPAX7) PS-cells as previously reported (Darabi, 2012). iPAX7-PS cells were cultured on matrigel-coated flasks using mTeSR1 medium (Stem Cell Technology). Cells were differentiated to myogenic progenitors as previously described (Darabi and Perlingeiro, 2016). Briefly, iPAX7-PS cells were detached with Accumax and 1×10^6 cells were plated in 6 cm non-adherent Petri dishes with mTeSR1 supplemented with 10 uM Y-27632 (ROCK inhibitor) and incubated at 37° C., 5% CO2 on a shaker at 60 RPM for 48 h. Then, medium was replaced with EB Myogenic (EBM) Medium supplemented with 10 uM […] (GSK3-β inhibitor) and 10 uM Y-27632. Three days later supplements were removed by changing to fresh medium. At day 7, EBs were plated on gelatin-coated flasks with EBM medium+10 ng/ml human basic FGF (bFGF) and three days later 1 ug/ml of doxycycline was added to the medium to induce PAX7 expression. Cells were harvested by trypsinization at day 14 and subsequently FACS sorted for GFP(+) expression. From this point, cells are considered as myogenic progenitors and cultured on gelatin-coated flasks using EBM medium+10 ng/ml bFGF+1 ug/ml Dox.
(§2) For terminal differentiation, myogenic progenitors at P3-P5 were plated on gelatin-coated dishes with EBM medium+10 ng/ml bFGF+1 ug/ml Dox. Upon reaching 100% confluency, medium was removed and replaced with knockout serum replacement (KOSR) or horse serum based terminal differentiation medium (TDM) supplemented with 10 uM DAPT, 10 uM BMS-906024.5 days after terminal differentiation, cells were fixed or collected for RNA analysis.
After 5 days of terminal differentiation, cells were washed with PBS and fixed with 4% PFA/PBS for 10 min. Then, cells were permeabilized with 0.3% Triton X-100/PBS for 15 min and blocked with 3% BSA/PBS for 20 min. Cells were incubated with a primary antibody that recognizes all MHC isoforms (MF-20, Developmental Studies Hybridoma Bank) overnight at 4° C. The next day, cells were incubated with an Alexa-555 secondary antibody supplemented with DAPI for 1 h at RT. Cells were analyzed by epifluorescence microscopy.

[4] = system: hES (H9) and iPS (PLZ) cell-derived myogenic progenitors; assay: RT-qPCR of myotubes differentiated from myogenic progenitors with gamma secretase inhibitors; settings: for mRNA expression level of MHC3 compared to non-treated cells / mRNA expression level of Myogenin compared to non-treated cells: 10 uM, KOSR- or horse serum-based media, 5 days at 37° C.
Experimental: as §1, §2
Differentiated myotubes (5d) were collected with TRIzol (Thermo Fisher Scientific) and RNA was purified using the Direct-zol RNA MiniPrep Plus (Zymo Research) following manufacturer's instructions. cDNA was obtained by RT-PCR using SuperScript VILO (Invitrogen) and qPCR was performed by using the Premix Ex Taq ROX plus (Takara) and TaMan probes (Thermo Fisher Scientific) specific to the genes of interest. qPCR was done with a QuantStudio 6 Flex Real-Time PCR System (Thermo Fisher Scientific). Data was normalized to GAPDH expression.

[5] = horse serum-based differentiation medium, hiPS

Structure (SMILES) | myotube differentiation efficiency [1] | neonatal Myosin Heavy Chain (MHC8) protein detection by Western blot [2] | Myogenin (MYOG) immunofluorescence: clustering of myogenic nuclei [3] | Myosin heavy chain (MHC) immunofluorescence: fusion, myotube thickness [3] | efficiency of differentiation by MHC and MYOG immunofluorescence ([3]; horse serum-based (HS) differentiation medium) | mRNA expression level of MHC3 compared to non-treated cells [4] | mRNA expression level of Myogenin compared to non-treated cells [4] | expression level of CAPN3 compared to untreated control [4, 5] | expression level of embryonic myosin heavy chain (MHC3) [4, 5] | expression level of neonatal myosin heavy chain (MHC8) [4, 5]
CC(NC(=O)Cc1cc(F)cc(F)c1)C(=O)N[C@H](C(=O)OC(C)(C)C)c1ccccc1 (stereo partly shown) [DAPT] | promoted higher myotube differentiation efficiency | can be detected only in the presence of DAPT | induce clustering of the myogenic nuclei | improve the fusion of the nuclei to give rise to thick myotubes | improves the efficiency of the differentiation | increased mRNA expression levels | increased mRNA expression levels | 5 fold | enhances the expression levels | more than 200 fold
O=C(NOC[C@H](O)CO)c1ccc(F)c(F)c1Nc1ccc(I)cc1F [PD 0325901] | promoted higher myotube differentiation efficiency | – | – | – | – | – | – | – | – | –
NC(=O)c1ccc(-c2nc(-c3ccc4c(c3)OCO4)c(-c3ccccn3)[nH]2)cc1 [SB 431542] | promoted higher myotube differentiation efficiency | – | – | – | – | – | – | – | – | –
CN1C(=O)[C@@H](NC(=O)[C@H](CCC(F)(F)F)[C@H](CCC(F)(F)F)C(N)=O)N=C(c2ccccc2)c2ccccc21 [BMS-906024] | – | – | induce clustering of the myogenic nuclei | improve the fusion of the nuclei to give rise to thick myotubes | – | increased mRNA expression levels | increased mRNA expression levels | – | – | –
